Results taken from US9622482B2, “Methods for increasing oil palm yield” (Valent BioSciences Corporation, priority 2014, dated 2017).

Assays:
[1] = tested on: oil palm fruit; settings: postharvest application, detached bunches; cited from earlier work
[2] = tested on: oil palm; experiment: Pre-harvest bunch-directed spray on oil palm, fruit abscission (cumulative loose fruit and loose mass); format: in vivo, oil palm (cross between Compact and Ghana); settings: for % Difference with UTC (Cumulative Loose Fruit) / % Difference with UTC (Cumulative Loose Mass) / Cumulative Loose Mass / Cumulative Loose Fruit: single spray 100 mL/bunch; for % Difference with UTC (Cumulative Loose Fruit) / % Difference with UTC (Cumulative Loose Mass) / Cumulative Loose Mass: 14 days; for Cumulative Loose Fruit: counted for 14 days
Description: A study was conducted in a plantation in Costa Rica to compare the effects of single bunch-directed applications of: (1) untreated control (water sprayed); (2) AVG at 500 ppm active ingredient (a.i.); (3) 240 ppm a.i. of STS; (4) 720 ppm a.i. of STS; (5) 2,200 ppm a.i. of STS; and (6) 6,600 ppm a.i. of STS. In this study, AVG was provided in a formulation as AVG-HCl at a concentration of 20%. STS was prepared using a 100 mM sodium thiosulfate treatment. For each treatment, 23 palms were randomly selected covering about 15 hectares. The variety of plants used was a cross between Compact and Ghana. The plants were three years old at the time of treatment. A CO2 sprayer was used to spray all treatments (100 mL/bunch) to bunches with 1 to 4 loose fruits. The time required to spray each bunch was about 8 seconds at 20 psi using a 2.0 full cone nozzle. The treatments were applied once per bunch. Ten and thirteen bunches per treatment were sprayed on Apr. 15 and 22, 2015, respectively. Cumulative loose fruit (CLF) and cumulative loose mass (CLM) counts were determined on a daily basis for 14 days with the exception of day 4 and day 9 (for second spray only) and day 11 (after initial spray only) as measure to objectively quantify fruit abscission. An electronic balance was used to weigh all fruit. All loose fruit on the bunch, branches and on the ground was counted and weighed.

[3] = tested on: oil palm fruit; settings: preharvest application to attached bunches; cited from earlier work
[4] = 240 to 6,600 ppm a.i., overall statement

**Q.** Which “abscission of oil palm fruit” value [1] does the source give for `NOCC(=O)O` [AOA, aminooxyacetic acid] here?
**A.** delayed or suppressed abscission

**Q.** Which “% Difference with UTC (Cumulative Loose Fruit)” value ([2]; 500 ppm a.i.) does the source give for `NCCO/C=C/[C@H](N)C(=O)O` [AVG, aminoethyoxyvinylglycine, reference compound] here?
**A.** 71.4%

**Q.** What about the “% Difference with UTC (Cumulative Loose Mass)” value ([2]; 500 ppm a.i.) of the same compound?
**A.** 70.8%

**Q.** What about the “Cumulative Loose Mass” value ([2]; 500 ppm a.i.) of the same compound?
**A.** 321 g

**Q.** And the “Cumulative Loose Fruit” value ([2]; 500 ppm a.i.)?
**A.** 72.0

**Q.** Which “increase of oil content” value [3] does the source give for `O=P(O)(O)CCCl` [ethephon, 2-chloroethyl phosphonic acid] here?
**A.** 7%

**Q.** Which “% Difference with UTC (Cumulative Loose Fruit)” value ([2]; 240 ppm a.i.) does the source give for silverthiosulfate [STS] here?
**A.** 14.4%

**Q.** What about the “% Difference with UTC (Cumulative Loose Mass)” value ([2]; 240 ppm a.i.) of the same compound?
**A.** −0.4%

**Q.** And the “Cumulative Loose Mass” value ([2]; 240 ppm a.i.)?
**A.** 1106 g

**Q.** What about the “Cumulative Loose Fruit” value ([2]; 240 ppm a.i.) of the same compound?
**A.** 129.0

**Q.** And the “effect on cumulative loose fruit” value [2, 4]?
**A.** did not consistently decrease

**Q.** What about the “effect on cumulative loose mass” value [2, 4] of the same compound?
**A.** did not consistently decrease

**Q.** And the “% Difference with UTC (Cumulative Loose Fruit)” value ([2]; 720 ppm a.i.)?
**A.** 18.7%

**Q.** What about the “% Difference with UTC (Cumulative Loose Mass)” value ([2]; 720 ppm a.i.) of the same compound?
**A.** 11.3%

**Q.** And the “Cumulative Loose Mass” value ([2]; 720 ppm a.i.)?
**A.** 977 g

**Q.** What about the “Cumulative Loose Fruit” value ([2]; 720 ppm a.i.) of the same compound?
**A.** 124.7

**Q.** And the “% Difference with UTC (Cumulative Loose Fruit)” value ([2]; 2,200 ppm a.i.)?
**A.** −15.7%

**Q.** What about the “% Difference with UTC (Cumulative Loose Mass)” value ([2]; 2,200 ppm a.i.) of the same compound?
**A.** −26.4%

**Q.** What about the “Cumulative Loose Mass” value ([2]; 2,200 ppm a.i.) of the same compound?
**A.** 1392 g

**Q.** What about the “Cumulative Loose Fruit” value ([2]; 2,200 ppm a.i.) of the same compound?
**A.** 159.1

**Q.** And the “% Difference with UTC (Cumulative Loose Fruit)” value ([2]; 6,600 ppm a.i.)?
**A.** 25.9%

**Q.** What about the “% Difference with UTC (Cumulative Loose Mass)” value ([2]; 6,600 ppm a.i.) of the same compound?
**A.** 7.3%

**Q.** What about the “Cumulative Loose Mass” value ([2]; 6,600 ppm a.i.) of the same compound?
**A.** 1020 g

**Q.** What about the “Cumulative Loose Fruit” value ([2]; 6,600 ppm a.i.) of the same compound?
**A.** 117.5
